According to paper PMC8955853, “New Sorbicillinoids with Tea Pathogenic Fungus Inhibitory Effect from Marine-Derived Fungus Hypocrea jecorina H8” (Marine Drugs, 2022):
Converted amounts (≈) assume the structure as drawn. “Also recorded” adds a separate entry of the source. Where two headings read alike, the source gives them in different places.

Tests used:
Pestalotiopsis theae = assay: Antifungal activity assay, growth inhibition of tea pathogenic fungus; format: cell-based; conditions: for IC50: Pseudopestalotiopsis theae, read-out: ED50, antifungal activity against Pestalotiopsis theae; for fold stronger anti-tea pathogenic fungus effect than hexaconazole: compared to positive control hexaconazole (24.25 ± 1.57 µg/mL)
Description: Compounds 1 to 11 were evaluated for antifungal activities by a paper disc inhibition assay.
Initial evaluations of the antifungal activity of the purified compounds were conducted against tea pathogenic fungus P. theae in six-well microplates as described by Xia Yan with certain modifications. The final concentrations of each compound in the wells were 80, 40, 20, 10, 5, and 2.5 µg/mL (two-fold dilutions). DMSO and hexaconazole were used as a blank control and positive control, respectively. The ED50 (μg/mL) values were calculated statistically using Probit analyses.

zebrafish embryos = assay: Zebrafish embryotoxicity and developmental toxicity assay; format: in vivo; conditions: for change of effect on zebrafish embryo mortality when treatment prolonged to 72 h: 72 h versus 24 h (Figure 4b); for effects on mortality rate and malformation of zebrafish: 0.625 μM for 24 h and 10 μM for 72 h (Figure 4c)
Description: Figure 4 Embryotoxicity and developmental toxicity assay; 15 zebrafish embryos per condition were exposed to compounds at the concentrations of 10, 5, 2.5, 1.25, and 0.625 μM, and 0.1% DMSO was used as blank control. (a) The mortality rate of 24 embryo treated with compounds; (b) The mortality rate of 72 embryo treated with compounds; (c) The impact on the malformation of zebrafish treated with compounds) The statistics of 24 and 72 h mortality rate; © Morphology of 24 h embryo or 72 h zebrafish larvae treated with compounds or control.
Wild-type (AB strain) zebra fish (Danio rerio) were used in this test. Compounds 5, 6, 8, 9, and 10 were dissolved in DMSO (10 mM) and stored at −20 °C. Toxicity evaluations were analyzed regarding the anti-proliferative effects on embryos according to the literature. In brief, 15 zebrafish embryos per condition were exposed to compounds at the concentrations of 10, 5, 2.5, 1.25, and 0.625 μM, and 0.1% DMSO was used as the vehicle control. A Leica stereomicroscope was used to observe the embryos every 24 h.

[1] = tested at 80, 40, 20, 10, 5 and 2.5 µg/mL, Probit analysis

## CCCCC(O)(Cn1cncn1)c1ccc(Cl)cc1Cl (stereo not drawn) [hexaconazole, reference compound]
Pestalotiopsis theae; [1]
  IC50: 24.2 ± 1.57 µg/mL (≈ 77.2 µM)

## C/C=C/CCC(=O)c1cc(C)c(O)c(C)c1O [Compound 6, 2′,3′-dihydrosorbicillin]
Pestalotiopsis theae; [1]
  IC50: 2.04 ± 1.24 µg/mL (≈ 8.71 µM)
Zebrafish embryos
  change of effect on zebrafish embryo mortality when treatment prolonged to 72 h: did not change greatly

## C/C=C/C=C/C(=O)c1cc(C)c(O)c(C)c1O [Compound 8, sorbicillin]
Pestalotiopsis theae; [1]
  IC50: 18.2 ± 1.29 µg/mL (≈ 78.4 µM)
Zebrafish embryos; 0.625 μM for 24 h
  zebrafish embryos killed: more than 50%
Zebrafish embryos
  effects on mortality rate and malformation of zebrafish: greater effects than other compounds
Zebrafish embryos; 0.625 μM, 72 h (Figure 4b)
  mortality rate of zebrafish embryo: ~60%
Zebrafish embryos; 10 μM for 72 h
  zebrafish embryos killed: more than 50%

## C/C=C/C=C/C(=O)c1cc(C)c(O)cc1O [Compound 7, 6-demethylsorbicillin]
Pestalotiopsis theae; [1]
  IC50: > 100 µg/mL

## Cc1cc(C(=O)CC(O)C(O)C(C)O)c(O)c(C)c1O (stereo not drawn) [Compound 4, 1-(2,4-dihydroxy-3,5-dimethylphenyl)-3,4,5-trihydroxyhexan-1-one]
Pestalotiopsis theae; [1]
  IC50: > 100 µg/mL

## C/C=C/C=C/C(O)=C1\C[C@](C)(O)[C@]2(O)O[C@]3(C)C(O)=C(C)C(=O)/C(=C(O)/C=C/C=C/C)[C@@H]3[C@]2(C)C1=O [Compound 11, bisvertinol]
Pestalotiopsis theae; [1]
  IC50: > 100 µg/mL

## Cc1cc(C(=O)/C=C/C=C/CO)c(O)c(C)c1O [Compound 9, (2E,4E)-1-(2,4-dihydroxy-3,5-dimethylphenyl)-6-hydroxyhexa-2,4-dien-1-one]
Pestalotiopsis theae; [1]
  IC50: 1.83 ± 1.37 µg/mL (≈ 7.37 µM)
Pestalotiopsis theae
  fold stronger anti-tea pathogenic fungus effect than hexaconazole: 13 fold
Zebrafish embryos
  change of effect on zebrafish embryo mortality when treatment prolonged to 72 h: did not change greatly

## CC=CC=CC(O)CC1C2(C)OC(=O)C1(CC)C(CC(C)O)=C(C)C2=O (stereo not drawn) [Compound 2, trichodermolide D]
Pestalotiopsis theae; [1]
  IC50: > 100 µg/mL

## trichodimerol [Compound 10]
Pestalotiopsis theae; [1]
  ED50, antifungal activity against Pestalotiopsis theae: 4.68 ± 1.44 µg/mL
Zebrafish embryos; 10, 5, 2.5, 1.25 and 0.625 μM, observed every 24 h
  toxicity to zebrafish eggs, embryos or larvae (overall, in words): low toxicity; also recorded: much lower toxicity
Zebrafish embryos
  change of effect on zebrafish embryo mortality when treatment prolonged to 72 h: did not change greatly

## CCC12C(=O)OC(C)(C(=O)C(C)=C1CC(C)=O)C2CC(=O)C=CC=CCO (stereo not drawn) [Compound 1, trichodermolide C]
Pestalotiopsis theae; [1]
  IC50: > 100 µg/mL

## CC=CC=CC(O)=C1CC(C)(O)C2(O)OC3(C)C(O)=C(C)C(=O)C(=C(O)C=CC=CC)C3C2(C)C1=O (stereo not drawn) [Compound 5, isobisvertinol A]
Pestalotiopsis theae; [1]
  IC50: 9.13 ± 1.25 µg/mL (≈ 18.3 µM)
Pestalotiopsis theae
  fold stronger anti-tea pathogenic fungus effect than hexaconazole: ~3 fold
Zebrafish embryos
  effects on mortality rate and malformation of zebrafish: greater effects than other compounds
  change of effect on zebrafish embryo mortality when treatment prolonged to 72 h: did not change greatly

## CC=CC=CC(O)=C1C(=O)C2(C)C3C(=C(O)CC(O)C=CC)C(=O)C4(C)C1C1(C)OC4(O)C3(C)OC12O (stereo not drawn) [Compound 3, 7,7′,9′-hydroxy-trichodimerol]
Pestalotiopsis theae
  IC50: > 100 µg/mL
